In patent US20200281949A1, “METHODS FOR TREATING CASTRATION-RESISTANT AND CASTRATION-SENSITIVE PROSTATE CANCER” (TOLERO PHARMACEUTICALS, INC., priority 2018, published 2020):

Experiments:
[1] = system: RNA Pol II phosphorylation in 22Rv1 cells; assay: RNA Pol II phosphorylation by flow cytometry in 22Rv1 cells; format: cell-based, human; conditions: 80 nM or 160 nM, three hours, 10% serum stimulated 1 hour before collection; vs DMSO
Procedure: To evaluate the effects of alvocidib on serum-stimulated prostate cancer cells, RNA Polymerase (Pol) II phosphorylation was assessed by flow cytometry. The prostate cancer cells, 22Rv1 cells, were treated with DMSO or alvocidib (80 nM or 160 nM) for three hours, and were serum stimulated (10%) one hour prior to sample collection. Goat anti-rabbit IgG H&L was used as an isotype control.

[2] = Phase I dose-escalation study in patients with advanced solid tumors: plasma PK; format: in vivo, human; conditions: for Tmax: plasma alvocidib, Cohort 5, 6 mg BID oral compound of structure (I) (Formulation No. 401-01)
Procedure: Plasma PK parameters of compound of structure (I) and alvocidib were evaluated in Cohorts 1-5 at specific timepoints during the study. Blood was collected from patients in Cohorts 1-5 according to the pharmacokinetic sampling schedule described in Table 9.
PK parameters were estimated using standard noncompartmental methods. Actual sample collection times were used rather than scheduled collection times. Plasma concentrations below the limit of quantification were treated as 0. Imbedded missing plasma concentrations (e.g., missing values between two observed values) were estimated using linear […]. This is consistent with using the trapezoidal rule to calculate AUC. Other missing plasma concentrations were excluded from calculations to estimate PK parameters.

[3] = system: LNCaP cells (caspase 3 cleavage); assay: Cell death by caspase 3 cleavage Western blot in LNCaP cells; format: cell-based, human; conditions: 100 nM, 48 hours, 10% serum
Procedure: LNCaP cells were treated with 100 nM alvocidib for 48 hours in regular 10% serum conditions. Cells were collected by scraping, washed in PBS, and lysed using sonication in RIPA buffer supplemented with protease and phosphatase inhibitors. […] of protein was loaded into a 4-12% gel, and transferred to a PVDF membrane. Blocking and staining was performed in 5% milk. […] Anti-actin was used as a loading control.

VCAP cells = assay: Cell viability assay in VCAP prostate cancer cells; format: cell-based; conditions: Homo sapiens, alvocidib 3.9 nM-1000 nM
Procedure: (§1) The compound of structure (I), and pharmaceutically acceptable salts and zwitterionic forms thereof, is converted in vivo to alvocidib (see U.S. Patent Publication No. US 2016/0340376, the full disclosure of which is hereby incorporated by reference in its entirety). Therefore, the in vitro effects of alvocidib were evaluated in multiple prostate cancer cell lines with varied sensitivity to androgen. PC3 is an AR-negative prostate cancer cell line with little to no expression of PSA and low sensitivity to androgens. VCAP is a prostate cancer cell line that is positive for ARv7, and can grow in an androgen-independent manner. LNCAP is an androgen-dependent prostate cancer cell line. 22Rv1 is a prostate cancer cell line that is positive for ARv7, has low sensitivity to androgen, and is derived from a xenograft that was serially propagated in mice after castration-induced regression and relapse of the parental, androgen-dependent CWR22 xenograft. […] Cell viability may be assessed, for example, using CellTiter-Glo according to manufacturer protocol.

PSA in LNCaP cells = assay: PSA protein level by Western blot in LNCaP cells; format: cell-based, human; conditions: 25 nM or 100 nM, 48 hours, vs vehicle
Procedure: (§2) On the day of the treatment, the media was replaced with 10 mL of fresh media. […] Cells were collected by scraping, washed in PBS, and lysed using sonication in RIPA buffer supplemented with protease and phosphatase inhibitors. […] of protein was loaded into a 4-12% gel, and transferred to a nitrocellulose membrane. Blocking, anti-actin, and secondary staining was done in 5% milk. Anti-PSA antibody was diluted in BSA.

22Rv1 cells = assay: Cell viability assay in 22Rv1 prostate cancer cells; format: cell-based; conditions: Homo sapiens, alvocidib 0.0026 nM-1000 nM
Procedure: as §1

LNCaP cells = assay: Cell viability assay in LNCaP prostate cancer cells; format: cell-based; conditions: Homo sapiens, alvocidib 3.9 nM-1000 nM
Procedure: as §1

[4] = system: androgen receptor (phospho- and total-AR) in 22Rv1 and LNCaP cells; assay: Immunoblotting of androgen receptor in serum-stimulated prostate cancer cells; format: cell-based, human; conditions: 80 nM or 160 nM, 24 hours of treatment, serum stimulated 1 hour before collection
Procedure: In a first experiment to evaluate the effects of alvocidib on serum stimulated prostate cancer cells, androgen receptor expression was assessed by immunoblotting. […] The prostate cancer cells, 22Rv1 or LNCaP, were treated with DMSO or alvocidib (80 nM or 160 nM), for either 3 hours or 24 hours, and were serum stimulated one hour prior to sample collection (or the cells were serum starved as a control).

PC3 cells = assay: Cell viability assay in PC3 prostate cancer cells; format: cell-based; conditions: Homo sapiens, PC-3, alvocidib 3.9 nM-1000 nM
Procedure: as §1

[5] = system: TMPRSS2 expression in 22Rv1 cells; assay: Quantitative real-time PCR of TMPRSS2 mRNA in serum-stimulated 22Rv1 cells; format: cell-based, human; conditions: 80 nM or 160 nM, 3 or 24 hours, 22Rv1 cells serum stimulated 1 hour before collection
Procedure: In another experiment; androgen receptor expression and functionality were assessed using quantitative real-time PCR measurement of the mRNA level of transmembrane protease, serine 2 (TMPRSS2) mRNA levels in prostate cancer cell line 22Rv1, as described in Chen et al., 2012. […] TMPRSS1 is an androgen-responsive gene, which is transcriptionally regulated by androgen receptor. An androgen response may be driven by the addition of exogenous testosterone; or by serum stimulation (which contains androgens), in prostate cancer cell lines.
The 22Rv1 cells were treated with DMSO or alvocidib (80 nM or 160 nM) for either 3 hours or 24 hours, and serum stimulated one hour prior to sample collection (or the cells were serum starved as a control).

PSA in VCaP cells = assay: PSA protein level by Western blot in VCaP cells; format: cell-based; conditions: 25 nM or 100 nM, 48 hours, vs vehicle
Procedure: as §2

[6] = PK analysis in PC-3 mouse xenograft model (plasma and tumor, LC-MS/MS); format: in vivo; conditions: 24 hours after oral gavage of compound of structure (I) 7.5 or 15 mg/kg; PC-3 xenograft mice
Procedure: PC-3 prostate tumor cells were maintained in vitro as a monolayer culture in Ham's F12K medium supplemented with 10% fetal bovine serum at 37° C. in an atmosphere of 5% CO2 in air. The cells in an exponential growth phase were harvested and counted for tumor inoculation. Each mouse was inoculated subcutaneously at the right flank region with PC-3 prostate tumor cells (5×10^6 cells) in 0.1 ml of PBS for tumor development. When the mean tumor size reached approximately 300 mm^3, the mice were randomized and divided into study groups.

[7] = system: PSA expression in 22Rv1 cells; assay: PSA expression in serum-stimulated 22Rv1 cells; format: cell-based, human; conditions: 80 nM or 160 nM, 24 hours
Procedure: The 22Rv1 cells were treated with DMSO or alvocidib (80 nM or 160 nM) for 24 hours, and serum stimulated either 3 hours or 23 hours following treatment (or the cells were serum starved as a control).

[8] = system: subcutaneous 22Rv1 human prostate cancer xenograft; assay: Efficacy study in the 22Rv1 xenograft prostate cancer model; format: in vivo, male BALB/c nude mice; conditions: castrated mice, 21 days; doses per Table 1: Cmpd Str (I) 1.25 mg/kg p.o. BID or 10 mg/kg p.o. Q7D; enzalutamide 30 mg/kg p.o. QD; docetaxel 10 mg/kg i.p. Q7D; ABT199 100 mg/kg p.o. QD
Procedure: The objective of this study was to evaluate the in vivo therapeutic efficacy of the compound of structure (I) or a pharmaceutically acceptable salt or zwitterionic form thereof in the treatment of a subcutaneous 22Rv1 human prostate cancer xenograft model. For the 22Rv1 model, efficacy of the compound of structure (I) was evaluated in male BALB/c nude mice. Cobalt-60 irradiation of all mice was performed 2 days before the tumor inoculation at 2 Gy (1 Gy=100 rads). Each mouse was inoculated at the right flank with 1×10^7 tumor cells in 0.1 ml of PBS mixed with matrigel (1:1). The date of tumor cell inoculation was denoted as day 0.
Castration was performed when mean tumor volume reached approximately 200 mm^3. Mice were anesthetized with ketamine/xylazine; surgical castration was performed via a midline scrotal incision allowing bilateral access to the hemiscrotal contents; after exposing each testicle, a 6-0 Vicryl suture was used to ligate the spermatic cord and then remove the testicle; the scrota and skin was then closed with 6-0 Vicryl suture, separately. Treatments started when the mean tumor volume re-grew to approximately 100 mm^3.
After tumors reached the appropriate size, approximately 100-200 mm^3, mice were randomized into treatment groups 1-11, which are shown in Table 1. Each treatment was administered starting on day 15, at a dosing volume of 5 μL/g and continued for 21 days (or 22 days for groups with treatment at Q7D). For groups with treatment at Q7D×3 weeks, dosing was performed on days 1, 8, and 15 post-randomization, and the study was terminated on day 22 post randomization. The combined treatment intervals were each 0 h, and the interval for BID was 8 h. Randomization was performed based on the “Matched distribution” method (StudyDirector™ software, version 3.1.399.19) randomized block design.
Tumor volumes were measured twice per week after randomization in two dimensions using a caliper, and the volume was expressed in mm^3 using the formula: “V=(L×W×W)/2,” where V is tumor volume, L is tumor length (the longest tumor dimension) and W is tumor width (the longest tumor dimension perpendicular to L). The average tumor volume for each group, as a percentage of the average tumor volume of the control group (group 1), is shown in FIG. 6. […] The percentage shown in FIG. 7 (% T/C) is calculated as mean(T)/mean(C)*100%, with “T” representing tumor volume and “C” representing tumor volume for group 1.
T and C are the mean tumor volume (or weight) of the treated groups and control group (group 1), respectively, on a given day. The percentages shown in FIG. 10 are calculated as % ΔT/C=(mean(T)−mean(T0))/(mean(C)−mean(C0))*100%, with “0” indicating the initial timepoint.

Compound: CN1CC[C@H](c2c(O)cc(O)c3c(=O)cc(-c4ccccc4Cl)oc23)[C@H](O)C1 [alvocidib, 2-(2-chlorophenyl)-5,7-dihydroxy-8-[(3S,4R)-3-hydroxy-1-methylpiperidin-4-yl]chromen-4-one]
- RNA Pol II phosphorylation staining (flow cytometry) [1]: dose-dependent reduction
- accumulation of alvocidib in plasma ([2]; Cohort 1, 1 mg QD oral Formulation No. 401-01, Subject 104, after 24 hours on day 14): some accumulation
- change in average Cmax and AUC of alvocidib from day 1 to day 14 ([2]; Cohort 2, 1 mg BID oral Formulation No. 401-01): marked increase
- Tmax ([2]; Cycle 1 Day 1, Mean of subjects 501-503): 60 min
- Tmax ([2]; Cycle 1 Day 1, Subject 501): 30 min
- Tmax ([2]; Cycle 1 Day 1, Subject 502): 120 min
- Tmax ([2]; Cycle 1 Day 1, Subject 503): 30 min
- Tmax ([2]; Cycle 1 Day 14, Mean of subjects 501-503): 60 min
- Tmax ([2]; Cycle 1 Day 14, Subject 501): 30 min
- Tmax ([2]; Cycle 1 Day 14, Subject 502): 120 min
- Tmax ([2]; Cycle 1 Day 14, Subject 503): 30 min
- cell death, as indicated by caspase 3 cleavage [3]: induced cell death
- IC50 (VCAP cells): 34.5 nM
- PSA expression at protein level (PSA in LNCaP cells): inhibited PSA expression
- IC50 (22Rv1 cells): 169 nM
- IC50 (LNCaP cells): 31.8 nM
- phospho- and total-AR protein levels [4]: lowers phospho- and total-AR levels
- IC50 (PC3 cells): 102 nM
- serum-stimulated induction of TMPRSS2 expression [5]: inhibited serum-stimulated induction of TMPRSS2
- PSA expression at protein level (PSA in VCaP cells): inhibited PSA expression
- retention of alvocidib in plasma and tumor [6]: retained in plasma and tumor tissues
- serum stimulated induction of PSA expression [7]: inhibited serum stimulated induction of PSA

Compound: CC(=O)O[C@@]12CO[C@@H]1C[C@H](O)[C@@]1(C)C(=O)[C@H](O)C3=C(C)[C@@H](OC(=O)[C@H](O)[C@@H](NC(=O)OC(C)(C)C)c4ccccc4)C[C@@](O)([C@@H](OC(=O)c4ccccc4)[C@H]21)C3(C)C [docetaxel, 1,7β,10β-trihydroxy-9-oxo-5β,20-epoxytax-11-ene-2α,4,13α-triyl 4-acetate 2-benzoate 13-{(2R,3S)-3-[(tert-butoxycarbonyl)amino]-2-hydroxy-3-phenylpropanoate}]
- anti-cancer activity in the 22Rv1 xenograft model (tumor growth) [8]: not active

Compound: CNC(=O)c1ccc(N2C(=S)N(c3ccc(C#N)c(C(F)(F)F)c3)C(=O)C2(C)C)cc1F [enzalutamide, 4-(3-(4-cyano-3-(trifluoromethyl)phenyl)-5,5-dimethyl-4-oxo-2-thioxoimidazolidin-1-yl)-2-fluoro-N-methylbenzamide]
- anti-cancer activity in the 22Rv1 xenograft model (tumor growth) [8]: not active

Compound: CC1(C)CCC(CN2CCN(c3ccc(C(=O)NS(=O)(=O)c4ccc(NCC5CCOCC5)c([N+](=O)[O-])c4)c(Oc4cnc5[nH]ccc5c4)c3)CC2)=C(c2ccc(Cl)cc2)C1 [venetoclax]
- anti-cancer activity in the 22Rv1 xenograft model (tumor growth) [8]: not active
